Literature values as cited in US20260185050A1, “BIOLOGIC INTERFACIAL TISSUE-ENGINEERED SYSTEMS USEFUL AS ARTHROPOD BITEMODEL” (UNIVERSITY OF CENTRAL FLORIDA RESEARCH FOUNDATION, INC., priority 2022, published 2026).

Key:
[1] = C5 epimers of alginate
Culex pipiens = settings: select experiments
Aedes albopictus = settings: selective dose response work, males and females
Aedes aegypti = settings: selective dose response work, males and females

pKa [1]	SMILES	kill performance versus erythritol (Culex pipiens)	kill performance versus erythritol (Aedes albopictus)	kill performance versus erythritol (Aedes aegypti)
3.65	O=C(O)[C@@H]1O[C@@H](O)[C@@H](O)[C@@H](O)[C@@H]1O [G, α-L-guluronate]			
3.38	O=C(O)[C@H]1O[C@@H](O)[C@@H](O)[C@@H](O)[C@@H]1O [M, β-D-mannuronate]			
	CC(O)CO (centres unmarked) [propylene glycol]	outperform erythritol	outperform erythritol	outperform erythritol
